{"source": "patent US20230279482A1", "about": "“COMPOSITIONS, METHODS AND USES FOR QUANTIFYING TRANSCRIPTION AND BIOSENSING OF SMALL MOLECULES USING A NOVEL TYPE VI CRISPR-CAS ASSAY” (THE REGENTS OF THE UNIVERSITY OF COLORADO, A BODY CORPORATE, priority 2020, published 2023)", "key": {"[1]": {"system": "transcription and Cas13 reaction", "assay": "Effect of agents on fluorescent signal of one-batch and two-batch assays", "assay_type": "biochemical", "settings": "FIGS. 6D-6F", "protocol": "In another exemplary method, two-batch methods included, 30 μL in vitro transcription reactions carried out as described above but without addition of Cas13a, crRNA, labeled RNA oligos, RNase inhibitor. Then, the reaction was washed three times with 500 μL ddH2O using an centrifugal filter (0.5 ml, 10 kDa cutoff). After concentrating the solution to approximately 20 μL, aliquots of 6 μL were taken and added to a 24 μL of a SHERLOCK reaction (described below).\n(§1) The SELEX method (previously described) has been used to select the P1 aptamer that binds to the neurotransmitter serotonin (i.e. 5-hydroxytryptamine) and this aptamer was incorporated into the expression platform pbuE′ to generate a riboswitch for serotonin."}, "[2]": {"system": "guanine riboswitch xpt/pbuE*6U", "assay": "SPRINT compound screen on guanine riboswitch", "assay_type": "biochemical", "settings": "10 μM and 1 mM for most compounds, solvent signal subtracted, FIG. 9A", "protocol": "Briefly, the transcriptional response of the guanine riboswitch xpt/pbuE*6U to 30 different compounds was measured at two different concentrations each (FIG. 9A and FIG. 10). The concentrations used were 10 μM and 1 mM for most compounds. The signal that was obtained from control experiments with the solvents DMSO or water was subtracted from all values."}, "[3]": {"system": "SPRINT assay without riboswitch (constitutively transcribed Cas13a target)", "assay": "SPRINT control screen with constitutive promoter template (PAINS identification)", "settings": "constitutive promoter template, FIG. 9B", "quoted_text": "The master mix was gently mixed by pipetting up and down and incubated at 37° C. for 15 minutes to allow binding of crRNA to Cas13a protein and the microwell plate was prepared by adding 3 μL of 10× ligand to the wells. The reaction was initiated by addition of rNTPs to the master mix to a concentration of 20 μM and then 27 μL of the complete master mix were added to each well and pipetted up and down to mix with the ligand in the wells. The plate was covered with an optical adhesive film to prevent evaporation of the sample while taking fluorescence measurements in a plate reader that was preheated to 37° C."}, "[4]": {"system": "flavin mononucleotide (FMN) riboswitch ribD/pbuE*7U", "assay": "SPRINT assay with FMN riboswitch", "assay_type": "biochemical, B. subtilis", "settings": "10 mM MgCl2, FIG. 4B", "protocol": "(§2) SPRINT reactions. Pentauridine RNA oligonucleotides were labeled with carboxyfluorescein (FAM) or TEX 615 at the 5′-end and with Iowa Black FQ at the 3′-end. Fluorescence measurements were taken at wavelengths 490/525 nm (excitation/emission) when the FAM fluorophore was used. In reactions with flavin-containing ligands, TEX-labeled RNA oligos were used at the wavelengths 576/615 (excitation/emission). Fluorescence measurements were taken every 5 minutes.\n(§3) For exemplary SPRINT assays, a master mix was first prepared and then mixed with the remaining reaction reagent components to yield a final reaction volume of 30 μL; fluorescent readings of the entire reaction volume were performed in Corning 384 Flat Bottom Black Polystyrol plates. This master mix (SPRINT buffer, 10×), for assays contemplated herein can include, but is not limited to: 700 mM Tris-HCl, pH 8.0, 700 mM NaCl, 1 mM EDTA, 140 mM β-mercaptoethanol, and 25 mM MgCl2. Aliquots of an exemplary 10× SPRINT buffer were stored at −20° C. and not allowed to undergo more than 10 freeze-thaw cycles.\nInitially, the observed ligand-dependent induction of the FMN riboswitch was very low. To improve this, the magnesium concentration in the SPRINT reaction was increased. […] Therefore, SPRINT reactions with the ribD/pbuE*7U riboswitch were conducted at 10 mM MgCl2 in these exemplary studies."}, "[5]": {"molecular_target": "T1, purine nucleoside phosphorylase (hPNP) (Homo sapiens, UniProt P00491)", "T1 sequence (P00491 1-289)": "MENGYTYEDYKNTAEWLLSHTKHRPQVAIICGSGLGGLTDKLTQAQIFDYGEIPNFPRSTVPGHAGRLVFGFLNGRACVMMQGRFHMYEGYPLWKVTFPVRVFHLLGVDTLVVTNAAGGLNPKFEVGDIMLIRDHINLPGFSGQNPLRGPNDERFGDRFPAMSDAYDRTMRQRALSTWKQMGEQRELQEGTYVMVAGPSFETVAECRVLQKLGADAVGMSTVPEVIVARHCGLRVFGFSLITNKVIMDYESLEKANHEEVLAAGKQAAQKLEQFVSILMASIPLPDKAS", "assay": "Enzyme-coupled SPRINT assay (inosine to hypoxanthine, guanine riboswitch xpt/pbuE*6U)", "assay_type": "biochemical", "description": "As part of the human purine metabolism, the enzyme purine nucleoside phosphorylase (hPNP) can catalyze the phosphorylation of the ribose moiety of various purines and thereby remove the sugar from the nucleobase. The conversion of deoxyguanosine to deoxyguanine by hPNP can be inhibited with nucleoside analogs such as Immucillin-H (forodesine) which leads to accumulation of deoxyguanosine and consequent apoptosis in activated T-cells. Therefore, hPNP is an important drug target for the treatment for example, of leukemia, arthritis, multiple sclerosis and transplant rejection.\nIn these systems, the conversion of inosine to hypoxanthine via hPNP was coupled to the SPRINT reaction in a one-batch buffer system using the guanine riboswitch xpt/pbuE*6U (FIG. 9D)."}, "[6]": {"system": "S-adenosylmethionine (SAM)-responsive riboswitch yitJ/pbuE*6U", "assay": "SPRINT assay with SAM riboswitch", "assay_type": "biochemical", "settings": "FIG. 4A", "protocol": "as §2, §3\nIn another exemplary method, to test the versatility of SPRINT, small-molecule dependent transcriptional regulation of various riboswitches was examined. […]"}, "[7]": {"system": "metE riboswitch", "assay": "SPRINT assay with native metE OFF riboswitch (with heparin, single turnover)", "assay_type": "biochemical, B. subtilis", "settings": "OFF switch, heparin added, FIG. 7B; read-out: T50 value (reduction of transcriptional rate)", "protocol": "For amplification of the native metE riboswitch from the genome, the following protocol was used: Colony PCR was performed, using the oligos “metE_fwd” (SEQ ID NO: 13) and “metE_rev” (SEQ ID NO: 14) at Tm=64° C. with Q5 DNA polymerase. The constant 5′ and 3′ parts of the SPRINT constructs were also amplified via PCR reactions, using any plasmid with a complete SPRINT sequence as template. The 5′ constant part was amplified with oligos “InsulatorOligo_fwd” (SEQ ID NO:1) and “e.coliProm_rev” (SEQ ID NO: 8). The 3′ constant part was amplified with oligos “RiboswitchBB_fwd” (SEQ ID NO: 7) and “ssDNA1_rev” (SEQ ID NO: 2). […] The PCR product was purified, quantified and used for a SPRINT reaction.\nIn another exemplary method, certain riboswitches described herein were re-engineered for certain properties such as wide dynamic range and a ligand-induced “ON”. […] Initially, measurements at intermediate concentrations of SAM were difficult to quantify because the high rate of transcription from the B. subtilis metE OFF-switch required very high concentrations of SAM to repress the signal (FIG. 8). […]"}, "[8]": {"system": "adenine riboswitch pbuE/pbuE‡", "assay": "SPRINT assay with adenine riboswitch", "assay_type": "biochemical", "settings": "FIG. 3D", "protocol": "as §2\nas §3, with “Aliquots of an exemplary 10× SPRINT buffer were stored at −20° C. and not allowed to undergo more than 10 freeze-thaw cycles.” left out\nThe transcriptional response of the well-characterized guanine riboswitch xpt/pbuE*6U and the adenine-responsive riboswitch pbuE/pbuE‡ to their respective ligand was measured by SPRINT and the radiolabeling method. The radiolabeling method used ^32P-labeled ATP for single turnover transcription assays, subsequent separation of the transcripts on an acrylamide gel, exposure to a phospho screen and quantification of the band intensities. […]"}, "[9]": {"system": "FMN riboswitch", "settings": "cited from earlier work"}, "[10]": {"system": "FMN riboswitch ribB", "settings": "E. coli ribB; cited from earlier work"}, "[11]": {"system": "serotonin riboswitch (P1 aptamer in expression platform pbuE′)", "assay": "SPRINT assay with synthetic serotonin riboswitch", "assay_type": "biochemical", "settings": "FIG. 4D", "protocol": "as §2, §3, §1"}, "[12]": {"molecular_target": "zinc-responsive transcription factor smtB (Synechococcus elongatus, UniProt P30340)", "sequence (P30340 whole entry)": "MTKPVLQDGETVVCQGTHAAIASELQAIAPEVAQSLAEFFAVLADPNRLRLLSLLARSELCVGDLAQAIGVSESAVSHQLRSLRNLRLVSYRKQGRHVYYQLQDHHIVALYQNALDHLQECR", "assay": "biochemical", "protocol": "In other exemplary methods, reactions with allosteric transcription factors (aTFs), ROSALIND reagent buffer (10× buffer containing, for assays contemplated herein, but not limited to: 400 mM Tris-HCl, pH 8.0, 200 mM NaCl, 20 mM spermidine, 100 mM DTT and 80 mM MgCl2) were used. The buffer was prepared fresh or stored as single-use aliquots at −80° C. […] The final concentration of the aTF monomers was either 2.5 μM tetR or 10 μM smtB. The master mix was incubated for 15 minutes at 37° C. which allows the aTFs to bind to the operator sequence.\nIn another exemplary method, bacterial transcription can be regulated by allosteric transcription factors (aTFs), such as activators or repressors, which have previously been used for small molecule detection. Another system (“ROSALIND”) enabled rapid detection of compounds via aTFs. […] The ROSALIND buffer system differs from the SPRINT or SHERLOCK buffer. Therefore, it was tested whether aTF-based ROSALIND reactions could be integrated with the Cas13a-based detection method. To simplify the system, the inorganic pyrophosphatase (IPPase) enzyme was first removed from the ROSALIND system. IPPase was used in transcription reactions to degrade pyrophosphate which was a reaction product of the RNA polymerase and can inhibit the reaction. […] Adaptions included reducing the concentrations of rNTP from 2.85 mM to 40 μM, DNA template from 25 to 15 nM, and T7 RNAP from 10 to 6.7 ng/μL.\nThe responses of the de-repressors tetR and smtB were measured with SPRINT."}}}
{"smiles": "N[C@@H](Cc1c[nH]c2ccc(O)cc12)C(=O)O", "note": "[5-hydroxytryptophan]", "values": [{"measurement": "inhibitory effect on transcription and Cas13 reaction", "setting": "[1]", "result": "did not cause inhibitory effects"}]}
{"smiles": "Nc1nc2c(c(=O)[nH]1)CC=N2", "note": "[7-deazaguanine]", "values": [{"measurement": "transcriptional response at low and high concentration", "setting": "[2]", "result": "some activation of transcription at low concentrations but no or reduced activation at high concentrations"}, {"measurement": "interference with SPRINT assay (PAINS)", "setting": "[3]", "result": "interfering compounds"}]}
{"smiles": "Cc1cc2nc3c(=O)[nH]c(=O)nc-3n(C[C@H](O)[C@H](O)[C@H](O)COP(=O)(O)O)c2cc1C", "note": "[FMN, flavin mononucleotide]", "values": [{"measurement": "EC50", "setting": "[4]; read-out: T50 value (ligand concentration at half-maximal activation of transcription)", "result": "~1010", "unit": "nM"}]}
{"smiles": "O=c1[nH]cnc2c([C@@H]3N[C@H](CO)[C@@H](O)[C@H]3O)c[nH]c12", "note": "[Immucillin-H]", "values": [{"measurement": "effect on hPNP enzymatic activity", "setting": "[5]; inhibitor at 100-fold lower concentration than substrate inosine, FIG. 9E", "result": "significant reduction in the enzymatic activity"}]}
{"smiles": "CNc1nc2nc[nH]c2c(=O)[nH]1", "note": "[N2-methylguanine]", "values": [{"measurement": "transcriptional response at low and high concentration", "setting": "[2]", "result": "only caused a strong transcriptional response at high concentrations"}, {"measurement": "interference with SPRINT assay (PAINS)", "setting": "[3]", "result": "interfering compounds"}]}
{"smiles": "CNc1ncnc2nc[nH]c12", "note": "[N6-methyladenine]", "values": [{"measurement": "transcriptional response at low and high concentration", "setting": "[2]", "result": "did not cause a transcriptional response at low or high concentrations"}]}
{"smiles": "C[S+](CC[C@H](N)C(=O)O)C[C@H]1O[C@@H](n2cnc3c(N)ncnc32)[C@H](O)[C@@H]1O", "note": "(some centres unmarked) [SAM, S-adenosylmethionine]", "values": [{"measurement": "response of SAM riboswitch to ligand", "setting": "[6]", "result": "responsive"}, {"measurement": "EC50", "setting": "[7]", "result": "~1000", "unit": "nM"}]}
{"smiles": "Nc1ncnc2nc[nH]c12", "note": "[adenine]", "values": [{"measurement": "response of adenine riboswitch to ligand", "setting": "[8]", "result": "responded efficiently"}]}
{"smiles": "Cc1cc2nc3c(=O)[nH]c(=O)nc-3n(C[C@H](O)[C@H](O)[C@H](O)COP(=O)(O)OP(=O)(O)OC[C@H]3O[C@@H](n4cnc5c(N)ncnc54)[C@H](O)[C@@H]3O)c2cc1C", "note": "[flavin adenine dinucleotide (FAD), flavin adenine dinucleotide]", "values": [{"measurement": "response / activation of FMN riboswitch", "setting": "[4]", "result": "low-affinity response"}]}
{"smiles": "Nc1nc2nc[nH]c2c(=O)[nH]1", "note": "[guanine]", "values": [{"measurement": "transcriptional response at low and high concentration", "setting": "[2]", "result": "equally strong transcriptional activation at low and high concentrations"}, {"measurement": "response of adenine riboswitch to ligand", "setting": "[8]", "result": "not"}]}
{"smiles": "OC[C@H]1O[C@@H](n2cnc3c(O)ncnc32)[C@H](O)[C@@H]1O", "note": "[inosine]", "values": [{"measurement": "hypoxanthine production by hPNP on titration", "setting": "[5]; FIG. 9F", "result": "concentration-dependent increase"}]}
{"smiles": "O=c1cc(-c2cccs2)nc([C@H]2CCCN(Cc3cn(-c4ncccn4)cn3)C2)[nH]1", "note": "[ribocil-C]", "values": [{"measurement": "agonism of FMN riboswitch from F. nucleatum", "setting": "[9]", "result": "strong agonist"}, {"measurement": "response / activation of FMN riboswitch", "setting": "[4]", "result": "no observable activation"}, {"measurement": "agonism of FMN riboswitch ribB", "setting": "[10]", "result": "strong agonist"}]}
{"smiles": "NCCc1c[nH]c2ccc(O)cc12", "note": "[serotonin, 5-hydroxytryptamine]", "values": [{"measurement": "inhibitory effect on transcription and Cas13 reaction", "setting": "[1]", "result": "specifically inhibited the transcription and also Cas13 reaction"}, {"measurement": "EC50", "setting": "[11]; read-out: T50 value", "result": "5000 ± 3000", "unit": "nM"}]}
{"smiles": "NCCc1c[nH]c2ccccc12", "note": "[tryptamine]", "values": [{"measurement": "discrimination by serotonin riboswitch", "setting": "[11]", "result": "discriminated specifically against"}]}
{"smiles": "[Zn+2]", "note": "[zinc]", "values": [{"measurement": "EC50", "setting": "[12]", "result": "4800 ± 300", "unit": "nM"}, {"measurement": "selectivity versus control copper", "setting": "[12]; FIG. 7C", "result": "high selectivity"}]}
